# Species on record: Rattus norvegicus
# Experiment: Open TG-GATES - Regimen: Single
# Format: toxicity, organism-based, Sprague-Dawley
# Set-up: regimen Single, gender Male, age 6 weeks
# Details: in vivo, po, 10 mg/kg, route gavage, dose level Low; for Bas / Eos / Hb / Ht / Lym / MCH / MCHC / MCV / Mono / Neu / Plat / RBC / Ret / WBC: tissue Blood; for KIDNEY_L / KIDNEY_R / KIDNEY_TOTAL: tissue Kidney; for LIVER: tissue Liver; for A/G / ALP / ALT / AST / BUN / CRE / Ca / Cl / DBIL / GLC / IP / K / LDH / Na / PL / RALB / TBIL / TC / TG / TP / gamma-GTP: tissue Plasma
compound,measurement,setting,value
Cc1ccc2cc3c(ccc4ccccc43)c3c2c1CC3 [3-METHYLCHOLANTHRENE],TERMINAL_BW,3 h,210.8 g
same,Bas,3 h,0%
same,Eos,3 h,0.8%
same,Hb,3 h,12.6 g/dL
same,Ht,3 h,39.3%
same,Lym,3 h,77.6%
same,MCH,3 h,20.5 pg
same,MCHC,3 h,32.2%
same,MCV,3 h,63.7 fL
same,Mono,3 h,3.4%
same,Neu,3 h,17.8%
same,Plat,3 h,130.6 x10_4/uL
same,RBC,3 h,616.6 x10_4/ul
same,Ret,3 h,9.1%
same,WBC,3 h,94.8 x10_2/uL
same,KIDNEY_L,3 h,0.9 g
same,KIDNEY_R,3 h,0.9 g
same,KIDNEY_TOTAL,3 h,1.8 g
same,LIVER,3 h,9.5 g
same,A/G,3 h,1
same,ALP,3 h,1720 IU/L
same,ALT,3 h,46.6 IU/L
same,AST,3 h,81 IU/L
same,BUN,3 h,13.1 mg/dL
same,CRE,3 h,0.1 mg/dL
same,Ca,3 h,10.9 mg/dL
same,Cl,3 h,103 meq/L
same,DBIL,3 h,0.002 mg/dL
same,GLC,3 h,175.4 mg/dL
same,IP,3 h,8.4 mg/dL
same,K,3 h,4.2 meq/L
same,LDH,3 h,201.8 IU/L
same,Na,3 h,139.7 meq/L
same,PL,3 h,172 mg/dL
same,RALB,3 h,2.9 g/dL
same,TBIL,3 h,0.004 mg/dL
same,TC,3 h,80 mg/dL
same,TG,3 h,185.2 mg/dL
same,TP,3 h,5.6 g/dL
same,gamma-GTP,3 h,0.7 IU/L
same,TERMINAL_BW,6 h,205.3 g
same,Bas,6 h,0%
same,Eos,6 h,0.4%
same,Hb,6 h,12.9 g/dL
same,Ht,6 h,38.8%
same,Lym,6 h,73.8%
same,MCH,6 h,20.7 pg
same,MCHC,6 h,33.3%
same,MCV,6 h,62.1 fL
same,Mono,6 h,3.6%
same,Neu,6 h,21.2%
same,Plat,6 h,131.8 x10_4/uL
same,RBC,6 h,625.8 x10_4/ul
same,Ret,6 h,7.9%
same,WBC,6 h,136.1 x10_2/uL
same,KIDNEY_L,6 h,0.9 g
same,KIDNEY_R,6 h,0.9 g
same,KIDNEY_TOTAL,6 h,1.8 g
same,LIVER,6 h,8.3 g
same,A/G,6 h,1
same,ALP,6 h,1483.2 IU/L
same,ALT,6 h,37.6 IU/L
same,AST,6 h,74.6 IU/L
same,BUN,6 h,8.2 mg/dL
same,CRE,6 h,0.1 mg/dL
same,Ca,6 h,10.6 mg/dL
same,Cl,6 h,105.3 meq/L
same,DBIL,6 h,0.002 mg/dL
same,GLC,6 h,165.8 mg/dL
same,IP,6 h,9.2 mg/dL
same,K,6 h,4.2 meq/L
same,LDH,6 h,162 IU/L
same,Na,6 h,140.5 meq/L
same,PL,6 h,160.6 mg/dL
same,RALB,6 h,2.8 g/dL
same,TBIL,6 h,0.004 mg/dL
same,TC,6 h,87.6 mg/dL
same,TG,6 h,79.2 mg/dL
same,TP,6 h,5.6 g/dL
same,gamma-GTP,6 h,0.7 IU/L
same,TERMINAL_BW,9 h,205.9 g
same,Bas,9 h,0%
same,Eos,9 h,0.8%
same,Hb,9 h,12.2 g/dL
same,Ht,9 h,37.7%
same,Lym,9 h,74.2%
same,MCH,9 h,20.2 pg
same,MCHC,9 h,32.5%
same,MCV,9 h,62 fL
same,Mono,9 h,2.8%
same,Neu,9 h,21.6%
same,Plat,9 h,122.2 x10_4/uL
same,RBC,9 h,608.4 x10_4/ul
same,Ret,9 h,8.9%
same,WBC,9 h,114.6 x10_2/uL
same,KIDNEY_L,9 h,0.9 g
same,KIDNEY_R,9 h,0.9 g
same,KIDNEY_TOTAL,9 h,1.7 g
same,LIVER,9 h,8.3 g
same,A/G,9 h,1
same,ALP,9 h,1540.8 IU/L
same,ALT,9 h,33.6 IU/L
same,AST,9 h,72 IU/L
same,BUN,9 h,11.6 mg/dL
same,CRE,9 h,0.1 mg/dL
same,Ca,9 h,10.5 mg/dL
same,Cl,9 h,104.7 meq/L
same,DBIL,9 h,0 mg/dL
same,GLC,9 h,174.4 mg/dL
same,IP,9 h,10.2 mg/dL
same,K,9 h,4.4 meq/L
same,LDH,9 h,186.6 IU/L
same,Na,9 h,142.1 meq/L
same,PL,9 h,155.2 mg/dL
same,RALB,9 h,2.8 g/dL
same,TBIL,9 h,0.002 mg/dL
same,TC,9 h,81.4 mg/dL
same,TG,9 h,90.6 mg/dL
same,TP,9 h,5.5 g/dL
same,gamma-GTP,9 h,0.8 IU/L
same,TERMINAL_BW,24 h,216.8 g
same,Bas,24 h,0%
same,Eos,24 h,0.2%
same,Hb,24 h,12.7 g/dL
same,Ht,24 h,38.9%
same,Lym,24 h,79%
same,MCH,24 h,20.2 pg
same,MCHC,24 h,32.6%
same,MCV,24 h,62 fL
same,Mono,24 h,3.4%
same,Neu,24 h,16.2%
same,Plat,24 h,120.4 x10_4/uL
same,RBC,24 h,627.6 x10_4/ul
same,Ret,24 h,7.9%
same,WBC,24 h,105.1 x10_2/uL
same,KIDNEY_L,24 h,0.9 g
same,KIDNEY_R,24 h,1 g
same,KIDNEY_TOTAL,24 h,1.9 g
same,LIVER,24 h,10.7 g
same,A/G,24 h,1
same,ALP,24 h,1758 IU/L
same,ALT,24 h,40.6 IU/L
same,AST,24 h,73.8 IU/L
same,BUN,24 h,15.7 mg/dL
same,CRE,24 h,0.1 mg/dL
same,Ca,24 h,10.9 mg/dL
same,Cl,24 h,103.5 meq/L
same,DBIL,24 h,0.002 mg/dL
same,GLC,24 h,179.6 mg/dL
same,IP,24 h,6.9 mg/dL
same,K,24 h,4.4 meq/L
same,LDH,24 h,173.4 IU/L
same,Na,24 h,141.7 meq/L
same,PL,24 h,165.6 mg/dL
same,RALB,24 h,2.8 g/dL
same,TBIL,24 h,0.002 mg/dL
same,TC,24 h,81.6 mg/dL
same,TG,24 h,150.3 mg/dL
same,TP,24 h,5.5 g/dL
same,gamma-GTP,24 h,0.8 IU/L

# Reference: ChEMBL document CHEMBL3885861, “Open TG-GATES”
